Among the data in patent publication US11286268B1, “EIF4E-inhibiting compounds and methods” (EFFECTOR THERAPEUTICS, INC., priority 2019, dated 2022) are IC50 values, retold here.

Structures are written as SMILES. Where two headings read alike, the source gives them in different places.

This assay deals with recombinant eIF4E (Homo sapiens (Human), UniProt P06730). As to the kind of experiment: Fluorescence polarization competition assay for eIF4E binding potency. In short, it runs like this:
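FP readout; IC50 fit from 8-point, 3-fold series. 75 nM eIF4E + 20 nM ATTO-550-labelled m7GDP probe, Tris pH 7.5/NaCl/DTT/Tween buffer, 1% DMSO final. 30 min RT equilibration, light-protected.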
A general note: Fluorescence polarisation rises when a labelled molecule tumbles more slowly, as on binding a larger partner.

The mark [1] stands for this setting: fluorescence polarization competition, 75 nM recombinant eIF4E, 20 nM EDA-m7GDP-ATTO-550, IC50 class, read-out: elF4E FP.
[2] abbreviates: inhibition of eIF4E/EDA-m7GDP-ATTO-550 binding by 50%, Table 4B calculated values, read-out: IC50.
Where [3] appears, read: inhibition of eIF4E/EDA-m7GDP-ATTO-550 binding, calculated IC50 values, Table 4B, read-out: IC50.

Chain of recombinant eIF4E (P06730 whole entry): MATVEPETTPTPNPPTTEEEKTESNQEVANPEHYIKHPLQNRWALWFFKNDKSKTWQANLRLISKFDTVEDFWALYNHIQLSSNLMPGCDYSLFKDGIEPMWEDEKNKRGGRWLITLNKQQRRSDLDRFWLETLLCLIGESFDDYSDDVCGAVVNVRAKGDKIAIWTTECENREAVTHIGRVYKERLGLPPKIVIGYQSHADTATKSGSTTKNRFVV

As for `CCN(c1ncc2nc(C)n(CC#Cc3ccc(Cl)cc3-c3ccnc4c(C(=O)O)csc34)c(=O)c2c1C#N)C1CCN(CC(F)(F)F)CC1` [compound 1176], the IC50 runs as follows: under setting [1], below 50 nM; under setting [2], 34.3 nM.
Turning to `Cc1ccc(-c2cc(Cl)ccc2OCCn2c(C)nc3c(C#N)nc(-c4cccnc4)c(C)c3c2=O)c2scc(C(=O)O)c12` [compound 729], the IC50 is, setting by setting: under setting [1], 50 to 1000 nM; under setting [2], 92.5 nM.
The matching figures for `COCc1ncc(C#N)c2c(=O)n(CCOc3ccc(Cl)cc3-c3ccc(C)c4c(C(=O)O)csc34)c(C)nc12` [compound 727]: below 50 nM and 29.4 nM.
For the compound `COc1c(CCOc2ccc(Cl)cc2-c2ccnc3c(C(=O)O)csc23)c(C)cc2cc(C(F)(F)F)cc(C#N)c12` [compound 1977], the IC50 under setting [3] was above 1000 nM.
Take `O=C(O)c1cccc(-c2cc(Cl)ccc2OCCn2cnc3cccc(F)c3c2=O)c1` [compound 4]: the IC50 is, setting by setting: under setting [1], above 1000 nM; under setting [2], 3520 nM.
As to `Cc1cc(-c2cc(Cl)ccc2OCCn2c(C)nc3c(=O)n(C)c(-c4ccccc4)c(C#N)c3c2=O)c2scc(C(=O)O)c2n1` [compound 1193], the IC50 under setting [1] was below 50 nM.
As for `CSc1ncc(-c2cc(Cl)ccc2OCCn2cnc3cnc(C#N)cc3c2=O)nc1C(=O)O` [compound 98], the IC50 was 50 to 1000 nM under setting [1] and 564 nM under setting [2].
The matching figures for `Cc1ccc(Nc2c(Cl)cc3nc(C)n(CCOc4ccc(Cl)cc4-c4cc(C)nc5c(C(=O)O)csc45)c(=O)c3c2C#N)cn1` [compound 960]: below 50 nM and 39.6 nM.
The matching figures for `Cc1cc(-c2cc(Cl)ccc2OCCn2c(C)nc3cnc(N4CCN(C)CC4)c(C#N)c3c2=O)c2sccc2n1` [compound 1089]: 50 to 1000 nM and 618 nM.
With `Cc1nc2cnc(N(C)C3CCN(C4CC(F)(F)C4)CC3)c(C#N)c2c(=O)n1CC#Cc1ccc(Cl)cc1-c1ccnc2c(C(=O)O)csc12` [compound 1165], the IC50 under setting [1] was below 50 nM and the IC50 under setting [2] was 22.3 nM.
The matching figures for `Cc1nc2c(N(C)C3CC4CCC(C3)N4C)ncc(C#N)c2c(=O)n1CCOc1ccc(Cl)cc1-c1ccnc2c(C(=O)O)csc12` (stereo not shown) [compound 863]: below 50 nM and 45.5 nM.
As for `Cc1cc(-c2cc(Cl)ccc2OCCn2c(C)nc3c(C)nc(CN(C)C)c(C#N)c3c2=O)c2scc(C(=O)O)c2n1` [compound 1621], the IC50 under setting [3] is 72.1 nM.
For the compound `Cc1nc2cnc(N3CCC(N4CC(OC(F)F)C4)CC3)c(C#N)c2c(=O)n1CC#Cc1ccc(Cl)cc1-c1ccnc2c(C(=O)O)csc12` [compound 1187], the IC50 under setting [1] was below 50 nM.
Turning to `Cc1cc(-c2cc(Cl)ccc2OCCn2c(C)nc3cc(C(F)F)c(O)c(C#N)c3c2=O)c2scc(C(=O)O)c2n1` [439b], under setting [2], the IC50 is 32 nM.
In the case of `Cc1nc2cnc(N(C)C3CCN(CC(F)(F)CF)CC3)c(C#N)c2c(=O)n1CC#Cc1ccc(Cl)cc1-c1ccnc2c(C(=O)O)csc12` [compound 1134], the IC50 is below 50 nM under setting [1] and 15.3 nM under setting [2].
With `Cc1cc(-c2cc(Cl)ccc2OCCn2c(C)nc3cc(C(F)(F)F)cc(C#N)c3c2=O)c2scc(C(=O)NS(C)(=O)=O)c2n1` [compound 565], the IC50 by setting is: under setting [1], below 50 nM; under setting [2], 29.7 nM.
On to `Cc1nc2c(F)cc(CN(C)C)c(C#N)c2c(=O)n1CCOc1ccc(Cl)cc1-c1ccnc2c(C(=O)O)csc12` [compound 508], for which the IC50 is below 50 nM under setting [1] and 15.2 nM under setting [2].
The matching figures for `CCN(c1ncc2nc(C)n(CC#Cc3ccc(Cl)cc3-c3ccnc4c(C(=O)O)csc34)c(=O)c2c1C#N)C1CCN(C2COC2)CC1` [compound 1186]: below 50 nM and 20.1 nM.
The matching figures for `C#Cc1c(C(F)(F)F)cc2nc(C)n(CCOc3ccc(Cl)cc3-c3cc(C)nc4c(C(=O)O)csc34)c(=O)c2c1C#N` [compound 790]: below 50 nM and 17.8 nM.
On to `Cc1ccc(-c2c(C(F)(F)F)cc3nc(C)n(CCOc4ccc(Cl)cc4-c4cc(C)nc5c(C(=O)O)csc45)c(=O)c3c2C#N)cn1` [compound 1910], for which, under setting [3], the IC50 is 47.4 nM.
